Source: patent publication US20020137929A1, “1 - (3-heterocyclylphenyl) isothiourea, -isourea, -guanidine and -amidine herbicidal agents” (Intellectual Property Department, BASF Aktiengesellschaft, priority 1998, published 2002)

Assays:
[1] = tested on: CASOB (Sicklepod); assay: Preemergence herbicidal evaluation; format: in vivo, Cassia obtusifolia; details: rated 4-5 weeks after treatment
In short: (§1)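 Seeds were planted in potting soil in cups, then sprayed preemergence with the test compound in aqueous acetone at about 0.0156 to 0.500 kg per hectare. Cups were kept under greenhouse conditions and visually rated 4–5 weeks after treatment on a 0–9 scale against an untreated control.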

[2] = tested on: AMBEL (Ragweed, Common); assay: Preemergence herbicidal evaluation; format: in vivo, Ambrosia artemisifolia; details: rated 4-5 weeks after treatment
In short: as §1

[3] = tested on: IPOHE (Morningglory, Ivyleaf); assay: Postemergence herbicidal evaluation; format: in vivo, Ipomoea hederacea
In short: (§2)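 Compound is applied as a foliar spray to seedlings about two weeks old, formulated in equal parts acetone and water with 0.5% TWEEN 20 and delivered at 40 psi to give about 0.0156–0.500 kg per hectare. Injury is rated visually 0–9 after four to five weeks.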

[4] = tested on: ECHORC (Watergrass (Calif.)); assay: Postemergence weed control under flooded paddy conditions; format: in vivo, Echinochloa oryzoides; details: postemergence weeds, 3-4 weeks after treatment
In short: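 With weeds 3 to 5 cm tall and rice at the 1.5 to 2.5 leaf stage, containers were flooded and water held 1.5 to 3 cm above soil. Compounds in 50/50 v/v aqueous/acetone went into the flood water at about 0.0313 to 0.500 kg/ha a.i. Effects were visually rated 0–9 against controls after three to four weeks in the greenhouse.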

[5] = tested on: ZEAMX (Corn, Field); assay: Postemergence herbicidal evaluation; format: in vivo, Zea mays
In short: as §2

[6] = tested on: GLXMAW (Soybean, Williams); assay: Postemergence herbicidal evaluation; format: in vivo, Glycine max, (L.) Merr. cv Williams
In short: as §2

[7] = tested on: SAGPY (Arrowhead (Pygmaea)); assay: Preemergence weed control under flooded paddy conditions; format: in vivo, Sagittaria pygmaea; details: rated 3-4 weeks after treatment
In short: (§3)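 Greenhouse paddy assay. Acetone/water (50/50 v/v) solutions dosed into flood water, equivalent to about 0.0313 to 0.500 kg/ha active ingredient, over seeds planted 0.5 cm deep in silt loam. Score: 0-9 visual, based on stand, vigor, malformation, size and chlorosis, 3 to 4 weeks after treatment.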

[8] = tested on: ABUTH (Velvetleaf); assay: Preemergence herbicidal evaluation; format: in vivo, Abutilon theophrasti; details: rated 4-5 weeks after treatment
In short: as §1

[9] = tested on: CYPSE (Flatsedge); assay: Preemergence weed control under flooded paddy conditions; format: in vivo, Cyperus serotinus; details: rated 3-4 weeks after treatment
In short: as §3

[10] = tested on: GLXMAW (Soybean, Williams); assay: Preemergence herbicidal evaluation; format: in vivo, Glycine max, (L.) Merr. cv Williams; details: rated 4-5 weeks after treatment
In short: as §1

[11] = tested on: SETVI (Foxtail, Green); assay: Preemergence herbicidal evaluation; format: in vivo, Setaria viridis; details: rated 4-5 weeks after treatment
In short: as §1

[12] = tested on: AMBEL (Ragweed, Common); assay: Postemergence herbicidal evaluation; format: in vivo, Ambrosia artemisifolia
In short: as §2

[13] = tested on: ECHCG (Barnyardgrass); assay: Preemergence herbicidal evaluation; format: in vivo, Echinochloa crus-galli; details: rated 4-5 weeks after treatment
In short: as §1

[14] = tested on: GALAP (Galium); assay: Preemergence herbicidal evaluation; format: in vivo, Galium aparine; details: rated 4-5 weeks after treatment
In short: as §1

## CCOC(=O)CN1C(=O)CSC1=Nc1cc(N2C(=O)C3=C(CCCC3)C2=O)c(F)cc1Cl [Compound 47, Ethyl 2-{[2-chloro-5-(1-cyclohexene-1,2-dicarboximido)-4-fluorophenyl]imino}-4-oxo-3-thiazolidineacetate]
[1]; rate 0.0156 kg/ha
  Preemergence herbicidal rating CASOB: 0.0
[1]; rate 0.0313 kg/ha
  Preemergence herbicidal rating CASOB: 0.0
[1]; rate 0.0625 kg/ha
  Preemergence herbicidal rating CASOB: 0.0
[1]; rate 0.1250 kg/ha
  Preemergence herbicidal rating CASOB: 0.0
[1]; rate 0.2500 kg/ha
  Preemergence herbicidal rating CASOB: 0.0
[2]; rate 0.0156 kg/ha
  Preemergence herbicidal rating AMBEL: 0.0
[2]; rate 0.0313 kg/ha
  Preemergence herbicidal rating AMBEL: 0.0
[2]; rate 0.0625 kg/ha
  Preemergence herbicidal rating AMBEL: 0.0
[2]; rate 0.1250 kg/ha
  Preemergence herbicidal rating AMBEL: 0.0
[2]; rate 0.2500 kg/ha
  Preemergence herbicidal rating AMBEL: 0.0
[3]; Rate 0.0156 kg/ha
  Postemergence herbicidal rating IPOHE: 9.0
[3]; Rate 0.0313 kg/ha
  Postemergence herbicidal rating IPOHE: 9.0
[3]; Rate 0.0625 kg/ha
  Postemergence herbicidal rating IPOHE: 9.0
[4]; rate 0.0313 kg/ha
  Herbicidal rating ECHORC: 0.0
[4]; rate 0.0625 kg/ha
  Herbicidal rating ECHORC: 2.0
[4]; rate 0.1250 kg/ha
  Herbicidal rating ECHORC: 4.0
[4]; rate 0.2500 kg/ha
  Herbicidal rating ECHORC: 7.0
[5]; Rate 0.0156 kg/ha
  Postemergence herbicidal rating ZEAMX: 5.0
[5]; Rate 0.0313 kg/ha
  Postemergence herbicidal rating ZEAMX: 7.0
[5]; Rate 0.0625 kg/ha
  Postemergence herbicidal rating ZEAMX: 7.5
[6]; Rate 0.0156 kg/ha
  Postemergence herbicidal rating GLXMAW: 5.5
[6]; Rate 0.0313 kg/ha
  Postemergence herbicidal rating GLXMAW: 7.0
[6]; Rate 0.0625 kg/ha
  Postemergence herbicidal rating GLXMAW: 7.5
[7]; 0.0313 kg/ha
  Herbicidal rating SAGPY: 0.0
[7]; 0.0625 kg/ha
  Herbicidal rating SAGPY: 0.0
[7]; 0.1250 kg/ha
  Herbicidal rating SAGPY: 4.0
[7]; 0.2500 kg/ha
  Herbicidal rating SAGPY: 7.0
[8]; rate 0.0156 kg/ha
  Preemergence herbicidal rating ABUTH: 4.0
[8]; rate 0.0313 kg/ha
  Preemergence herbicidal rating ABUTH: 4.0
[8]; rate 0.0625 kg/ha
  Preemergence herbicidal rating ABUTH: 9.0
[8]; rate 0.1250 kg/ha
  Preemergence herbicidal rating ABUTH: 9.0
[8]; rate 0.2500 kg/ha
  Preemergence herbicidal rating ABUTH: 9.0
[9]; 0.0313 kg/ha
  Herbicidal rating CYPSE: 0.0
[9]; 0.0625 kg/ha
  Herbicidal rating CYPSE: 0.0
[9]; 0.1250 kg/ha
  Herbicidal rating CYPSE: 0.0
[9]; 0.2500 kg/ha
  Herbicidal rating CYPSE: 0.0
[10]; rate 0.0156 kg/ha
  Preemergence herbicidal rating GLXMAW: 0.0
[10]; rate 0.0313 kg/ha
  Preemergence herbicidal rating GLXMAW: 0.0
[10]; rate 0.0625 kg/ha
  Preemergence herbicidal rating GLXMAW: 0.0
[10]; rate 0.1250 kg/ha
  Preemergence herbicidal rating GLXMAW: 0.0
[10]; rate 0.2500 kg/ha
  Preemergence herbicidal rating GLXMAW: 0.0
[11]; rate 0.0156 kg/ha
  Preemergence herbicidal rating SETVI: 0.0
[11]; rate 0.0313 kg/ha
  Preemergence herbicidal rating SETVI: 0.0
[11]; rate 0.0625 kg/ha
  Preemergence herbicidal rating SETVI: 0.0
[11]; rate 0.1250 kg/ha
  Preemergence herbicidal rating SETVI: 0.0
[11]; rate 0.2500 kg/ha
  Preemergence herbicidal rating SETVI: 4.0
[12]; Rate 0.0156 kg/ha
  Postemergence herbicidal rating AMBEL: 3.0
[12]; Rate 0.0313 kg/ha
  Postemergence herbicidal rating AMBEL: 9.0
[12]; Rate 0.0625 kg/ha
  Postemergence herbicidal rating AMBEL: 9.0
[13]; rate 0.0156 kg/ha
  Preemergence herbicidal rating ECHCG: 0.0
[13]; rate 0.0313 kg/ha
  Preemergence herbicidal rating ECHCG: 0.0
[13]; rate 0.0625 kg/ha
  Preemergence herbicidal rating ECHCG: 0.0
[13]; rate 0.1250 kg/ha
  Preemergence herbicidal rating ECHCG: 0.0
[13]; rate 0.2500 kg/ha
  Preemergence herbicidal rating ECHCG: 0.0
[14]; rate 0.0156 kg/ha
  Preemergence herbicidal rating GALAP: 0.0
[14]; rate 0.0313 kg/ha
  Preemergence herbicidal rating GALAP: 0.0
[14]; rate 0.0625 kg/ha
  Preemergence herbicidal rating GALAP: 0.0
[14]; rate 0.1250 kg/ha
  Preemergence herbicidal rating GALAP: 0.0
[14]; rate 0.2500 kg/ha
  Preemergence herbicidal rating GALAP: 9.0
